Experimental data published in patent US20170305922A1, “CARM1 INHIBITORS AND USES THEREOF” (Epizyme, Inc., priority 2014, published 2017).

Columns and labels:
Human CARM1 (PRMT4) = biological target: T1, Human CARM1 (PRMT4) (Homo sapiens, UniProt Q86X55); assay: CARM1 enzyme assay on peptide substrates (3H-SAM Flashplate); conditions: Biochemical assay; CARM1 0.25 nM, 3H-SAM 30 nM, peptide 250 nM; read-out: Biochem IC50
T1 construct: Flag-CARM1-His was eluted with 200 ug/ml FLAG peptide in buffer A; made in house; host or cells: HEK 293F cells infected with recombinant baculovirus (pFastBacMam)
T1 sequence (Q86X55 1-585 isoform Q86X55-1): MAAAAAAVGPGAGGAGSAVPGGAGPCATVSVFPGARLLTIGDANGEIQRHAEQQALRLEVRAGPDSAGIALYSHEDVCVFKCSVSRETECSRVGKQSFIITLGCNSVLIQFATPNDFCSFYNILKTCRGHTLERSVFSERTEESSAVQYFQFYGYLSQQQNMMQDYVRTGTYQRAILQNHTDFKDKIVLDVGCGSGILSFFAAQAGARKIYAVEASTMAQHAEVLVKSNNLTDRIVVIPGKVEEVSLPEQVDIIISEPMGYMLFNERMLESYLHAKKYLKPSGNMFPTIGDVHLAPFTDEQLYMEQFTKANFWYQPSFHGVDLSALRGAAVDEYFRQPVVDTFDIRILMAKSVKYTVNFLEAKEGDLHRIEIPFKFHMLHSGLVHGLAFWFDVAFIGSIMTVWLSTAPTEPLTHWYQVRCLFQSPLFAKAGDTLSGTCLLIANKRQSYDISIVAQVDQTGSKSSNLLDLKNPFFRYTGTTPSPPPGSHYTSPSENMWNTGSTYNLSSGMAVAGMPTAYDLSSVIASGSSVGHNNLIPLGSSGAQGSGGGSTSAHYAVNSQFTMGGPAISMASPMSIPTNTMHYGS
Description: S-adenosylmethionine (SAM), S-adenosylhomocysteine (SAH), bicine, Tween20, dimethylsulfoxide (DMSO), bovine skin gelatin (BSG), sodium butyrate and Tris(2-carboxyethyl)phosphine hydrochloride solution (TCEP) were purchased from Sigma-Aldrich at the highest level of purity possible. ^3H-SAM was purchase from American Radiolabeled Chemicals with a specific activity of 80 Ci/mmol. 384-well streptavidin Flashplates were purchased from PerkinElmer.
Peptide representative of human histone H3 residues 16-30 was synthesized with an N-terminal linker-affinity tag motif and a C-terminal amide cap by 21st Century Biochemicals. […] The sequence was Biot-Ahx-[…]-amide and contained a monomethylated arginine at position 26 (SEQ ID NO.:1).
The gene sequence encoding isoform1 containing a deletion of amino acids 539-561 was amplified subsequently and subcloned into pFastBacMam (Viva Biotech).
Recombinant baculovirus were generated according to Bac-to-Bac kit instructions (Life Technologies). Protein over-expression was accomplished by infecting exponentially growing HEK 293F cell culture at 1.3×10^6 cell/ml with virus (MOI=10) in the presence of 8 mM sodium butyrate. Infections were carried out at 37° C. for 48 hours, harvested by centrifugation, and stored at −80° C. for purification.
Column was washed with 500 mM NaCl in buffer A and Flag-CARM1-His was eluted with 200 ug/ml FLAG peptide in buffer A. Pooled fractions were dialyzed in 20 mM Tris, 150 mM NaCl, 5% glycerol and 1 mM DTT, pH 7.8.
The assays were all performed in a buffer consisting of 20 mM Bicine (pH=7.6), 1 mM TCEP, 0.005% BSG, and 0.002% Tween 20, prepared on the day of use. Compounds in 100% DMSO (1 ul) were spotted into a polypropylene 384-well V-bottom plates (Greiner) using a Platemate Plus outfitted with a 384-channel head (Thermo Scientific). DMSO (1 ul) was added to Columns 11, 12, 23, 24, rows A-H for the maximum signal control and 1 ul of SAH, a known product and inhibitor of CARM1, was added to columns 11, 12, 23, 24, rows I-P for the minimum signal control. A cocktail (40 ul) containing the CARM1 enzyme was added by Multidrop Combi (Thermo-Fisher). The compounds were allowed to incubate with CARM1 for 30 min at room temperature, then a cocktail (10 ul) containing ^3H-SAM and peptide was added to initiate the reaction (final volume=51 ul). The final concentrations of the components were as follows: CARM1 was 0.25 nM, ^3H-SAM was 30 nM, peptide was 250 nM, SAH in the minimum signal control wells was 1 mM, and the DMSO concentration was 2%. The assays were stopped by the addition of non-radiolabeled SAM (10 ul) to a final concentration of 300 uM, which dilutes the ^3H-SAM to a level where its incorporation into the peptide substrate is no longer detectable. 50 ul of the reaction in the 384-well polypropylene plate was then transferred to a 384-well Flashplate and the biotinylated peptides were allowed to bind to the streptavidin surface for at least 1 hour before being washed once with 0.1% Tween20 in a Biotek ELx405 plate washer. The plates were then read in a PerkinElmer TopCount plate reader to measure the quantity of ^3H-labeled peptide bound to the Flashplate surface, measured as disintegrations per minute (dpm) or alternatively, referred to as counts per minute (cpm).
where dpm=disintegrations per minute, cmpd=signal in assay well, and min and max are the respective minimum and maximum signal controls.
where top and bottom are the normally allowed to float, but may be fixed at 100 or 0 respectively in a 3-parameter fit. The Hill Coefficient normally allowed to float but may also be fixed at 1 in a 3-parameter fit. Y is the % inhibition and X is the compound concentration.

[1] = system: asymmetric di-methyl PABP1 in RKO cells; assay: RKO methylation assay: In Cell Western (ICW) for asymmetric di-methyl PABP1 (PABP1me2a); conditions: Homo sapiens, RKO, 48 h, Cellular-based (PABP1me2a) ICW (In Cell Western) assay
Description: RKO adherent cells were purchased from ATCC (American Type Culture Collection), Manassas, Va., USA. DMEM/Glutamax medium, penicillin-streptomycin, heat inactivated fetal bovine serum, 0.05% trypsin and D-PBS were purchased from Life Technologies, Grand Island, N.Y., USA. Odyssey blocking buffer, 800CW goat anti-rabbit IgG (H+L) antibody, and Licor Odyssey infrared scanner were purchased from Licor Biosciences, Lincoln, Nebr., USA. Asymmetric di-methyl PABP1 antibody was purchased from Cell Signaling Technology, Danvers, Mass., USA. Methanol was purchased from VWR, Franklin, Mass., USA. 10% Tween 20 was purchased from KPL, Inc., Gaithersburg, Md., USA. Paraformaldehyde (PFA) was purchased from EM Sciences. DRAQ5 was purchased from Biostatus Limited, Leicestershire, UK.
RKO adherent cells were maintained in growth medium (DMEM/Glutamax medium supplemented with 10% v/v heat inactivated fetal bovine serum and 100 units/mL penicillin-streptomycin) and cultured at 37° C. under 5% CO2.
Cell treatment, In Cell Western (ICW) for detection of asymmetric di-methyl PABP1 and DNA content: RKO cells were seeded in assay medium at a concentration of 30,000 cells per mL to a poly-D-lysine coated 384 well culture plate (BD Biosciences 356697) with 50 μL per well. Compound (100 nL) from a 96-well source plate was added directly to 384 well cell plate. Plates were incubated at 37° C., 5% CO2 for 48 hours. After two days of incubation, plates were brought to room temperature outside of the incubator for ten minutes and blotted on paper towels to remove cell media. Cells were fixed for 20 minutes at room temperature by adding 50 ul of 8% PFA followed by aspiration of supernatant with the Biotek EL406 plate washer. Cells were then permeabilized by addition of 50 μL of ice cold 100% methanol directly to each well and incubated for 30 min at room temperature. After 30 min, plates were transferred to a Biotek EL406 plate washer and washed 2 times with 100 μL per well of wash buffer (1×PBS). Next 60 μL per well of Odyssey blocking buffer (Odyssey Buffer with 0.1% Tween 20 (v/v)) were added to each plate and incubated 1 hour at room temperature. Blocking buffer was removed and 20 μL per well of primary antibody was added (asymmetric-methyl PABP1) diluted 1:400 in Odyssey buffer with 0.1% Tween 20 (v/v)) and plates were incubated overnight (16 hours) at 4° C. Plates were washed 5 times with 100 μL per well of wash buffer. Next 20 μL per well of secondary antibody was added (1:800 800CW goat anti-rabbit IgG (H+L) antibody, 1:2000 DRAQ5 in Odyssey buffer with 0.1% Tween 20 (v/v)) and incubated for 1 hour at room temperature. The plates were washed 5 times with 100 μL per well wash buffer then 2 times with 100 μL per well of water. Plates were allowed to dry at room temperature then imaged on the Licor Odyssey machine which measures integrated intensity at 700 nm and 800 nm wavelengths. Both 700 and 800 channels were scanned.
First, the ratio for each well was determined by:
Each plate included fourteen control wells of DMSO only treatment (minimum inhibition) as well as fourteen control wells for maximum inhibition treated with 20 μM of a reference compound. The average of the ratio values for each control type was calculated and used to determine the percent […] for each test well in the plate. Reference compound was serially diluted three-fold in DMSO for a total of nine test concentrations, beginning at 20 μM.
Percent inhibition was determined and IC50 curves were generated using triplicate wells per concentration of compound.

CNC[C@@H](O)COc1ccc(Cl)c(-c2nc(-c3c(C)c(C#N)nn3C)c(C)c(N3CC4(CCN(C(=O)OC)CC4)C3)n2)c1 [Example 345]
IC50 (Human CARM1 (PRMT4)): 5.66 nM | IC50 [1]: 262 nM

CCC1(C(=O)N(C)C)CN(c2nc(-c3cc(OC[C@H](O)CNC)ccc3Cl)nc(-c3c(C)noc3C)c2C)C1 [Example 190]
IC50 (Human CARM1 (PRMT4)): 6.2 nM | IC50 [1]: 138 nM

CNC[C@@H](O)COc1ccc(Cl)c(-c2nc(-c3c(C)noc3C)c(C)c(N3Cc4ccc(C)nc4C3)n2)c1 [Example 69]
IC50 (Human CARM1 (PRMT4)): 1.2 nM | IC50 [1]: 22 nM

CNC[C@@H](O)COc1ccc(Cl)c(-c2nc(-c3c(C)c(Cl)nn3C)c(C)c(N3Cc4cnc(N5CC(F)(F)C5)nc4C3)n2)c1 [Example 146]
IC50 (Human CARM1 (PRMT4)): 2.7 nM | IC50 [1]: 26 nM

CNC[C@@H](O)COc1ccc(Cl)c(-c2nc(-c3c(C)noc3C)c(C)c(N3Cc4cn(C(CO)CO)nc4C3)n2)c1 [Example 114]
IC50 (Human CARM1 (PRMT4)): 7.8 nM | IC50 [1]: 5850 nM

CNC[C@@H](O)COc1ccc(Cl)c(-c2nc(-c3c(C)noc3C)c(C)c(N3Cc4cnn(C5CCOCC5)c4C3)n2)c1 [Example 135]
IC50 (Human CARM1 (PRMT4)): 4.6 nM | IC50 [1]: 93 nM

CNC[C@@H](O)COc1ccc(Cl)c(-c2nc(-c3c(C)noc3C)c(C)c(N3CC4(CCC(C#N)CC4)C3)n2)c1 [Example 92]
IC50 (Human CARM1 (PRMT4)): 5.2 nM | IC50 [1]: 64 nM

CCOc1ncc2c(n1)CN(c1nc(-c3cc(OC[C@H](O)CNC)ccc3Cl)nc(-c3c(C)noc3C)c1C)C2 [Example 72]
IC50 (Human CARM1 (PRMT4)): 2.9 nM | IC50 [1]: 12 nM

CNC[C@@H](O)COc1ccc(Cl)c(-c2nc(-c3c(Cl)cnn3C)c(C)c(N3Cc4cnc(N5CCC5)nc4C3)n2)c1 [Example 340]
IC50 (Human CARM1 (PRMT4)): 2 nM | IC50 [1]: 17.5 nM

CNC[C@@H](O)COc1ccc(Cl)c(-c2nc(-c3c(C)c(Cl)nn3C)c(C)c(N3Cc4cnc(N(C)C)nc4C3)n2)c1 [Example 168]
IC50 (Human CARM1 (PRMT4)): 2.5 nM | IC50 [1]: 26 nM

CNC[C@@H](O)COc1ccc(Cl)c(-c2nc(-c3c(C)noc3C)c(C)c(N3Cc4cccnc4C3C)n2)c1 (stereo partly drawn) [Example 123]
IC50 (Human CARM1 (PRMT4)): 3.4 nM | IC50 [1]: 163 nM

CNC[C@@H](O)COc1ccc(Cl)c(-c2nc(-c3c(C)noc3C)c(C)c(N3CC4(CC(NC)C4)C3)n2)c1 [Example 282]
IC50 (Human CARM1 (PRMT4)): 0.9 nM | IC50 [1]: 2210 nM
